Tests used:
[1] = Solubility; type: physicochemical; details: prevented its clinical evaluation
[2] = Chemical stability of isocyanates; type: physicochemical; details: for half-life: physiological pH and temperature; for stability (hydrolysis): water-acetone (1:3), 57° C., three-day period, pH 6.0
Description: Both have half-lives of greater than 30 minutes at physiological pH and temperature.

[3] = Toxicity of single-dose NCNU ip in normal mice (deaths); design: species or system CDFl mice; details: in vivo; for mortality at 192 h: at day 8; for mortality at 24 h: at day 1; for mortality at 216 h: at day 9
Description: Toxicity studies were conducted by injecting a single dose of NCNU ip.
Toxicity of NCNU in CDFl Normal Mice

[4] = test system: Yancey's lymphocytic leukemia (YLL); assay: Single-dose treatment against two-day Yancey's lymphocytic leukemia (increase in median life span); type: in vivo, mouse
Description: (§1) The effect of NCNU was tested against Yancey's lymphocytic leukemia (YLL) which had been implanted subcutaneously (sc) two days before injection of the drug. The single injection of 0.1 ml of a solution of one spleen of a YLL bearing mouse homogenized in 10 ml Locke's Solution was given either intraperitoneally or subcutaneously.
(§2) Effects of Single-Dose Treatment with NCNU Against
Two-Day Yancey's Lymphocytic Leukemia
(§3) experiments are continuing.

[5] = test system: Yancey's lymphocytic leukemia (YLL); assay: NCNU against Yancey's lymphocytic leukemia, treatment begun day 2 or 7, several schedules; type: in vivo, mouse
Description: as §1
The study of Experiment III was conducted with NCNU treatment beginning at 2 or 7 days after implantation of YLL tumors. NCNU injection was ip or sc on a schedule of one time per week for 4 weeks, twice per week for 4 weeks, or a single dose.
Effects of NCNU Against Yancey's
as §3

[6] = test system: murine leukemia P388 tumor cells; assay: Single-dose treatment against two-day murine leukemia P388 (increase in median lifespan); type: in vivo, CDF1 mice
Description: (§4) A single dose of 1-neopentyl-3-(2-chloroethyl)-3-nitrosourea (NCNU) was injected intraperitoneally (ip) in CDF1 mice which had been implanted ip two days earlier with approximately 10×10^5 murine leukemia L1210 tumor cells. The NCNU was dissolved in emulphor EL-620 (polyoxyethylated; GAF Corporation, New York, N.Y.) and raised to the desired volume with 0.85% sodium chloride.
The study of Experiment I was conducted using approximately 5×10^5 murine leukemia P388 tumor cells (0.1 ml of a 1:100 dilution).
as §2
Two-Day Murine Leukemia P388
as §3

[7] = test system: various forms of cancer; assay: Human studies, patients having advanced stages of various forms of cancer; type: in vivo; details: two 25 mg/kg sc doses or iv, total 50 mg/kg daily
Description: Patients having advanced stages of various forms of cancer are treated by subcutaneous injection of two 25 mg/kg doses of NCNU in water or by intravenous administration of 1 milligram NCNU/ml 0.9% saline to provide a total daily dose of 50 mg/kg; a full clinical examination is carried out prior to and after administration. Tumor growth is measured where possible by palpition, X-rays and photography.

[8] = test system: murine leukemia L1210 tumor cells; assay: Single-dose treatment against two-day murine leukemia L1210 (increase in median lifespan); type: in vivo, CDF1 mice
Description: as §4, §2
Two-Day Murine Leukemia L1210
as §3

CC(C)(C)CNC(=O)N(CC(C)(C)C)N=O
solubility [1]: limited solubility

CC(C)(C)CCN=C=O [neohexyl isocyanate]
half-life [2]: > 30 min | stability (hydrolysis) [2]: remarkably stable

CC(C)(C)CN=C=O [neopentyl isocyanate]
half-life [2]: > 30 min | stability (hydrolysis) [2]: remarkably stable

CC(C)(C)CNC(=O)N(CCCl)N=O [NCNU, 1-neopentyl-3-(2-chloroethyl)-3-nitrosourea]
mortality ([3]; 1.0 mg/mouse ip): 0% | mortality at 312 h ([3]; 2.0 mg/mouse ip, at day 13, others survived): 60% | mortality at 240 h ([3]; 4.0 mg/mouse ip, at day 10): 100% | mortality at 192 h ([3]; 8.0 mg/mouse ip): 100% | mortality at 96 h ([3]; 16.0 mg/mouse ip, at day 4): 100% | mortality at 24 h ([3]; 20.0 mg/mouse ip): 100% | mortality at 24 h ([3]; 32.0 mg/mouse ip): 100% | mortality at 312 h ([3]; mouse, 100 mg/kg ip, at day 13): 100% | mortality at 264 h ([3]; mouse, 150 mg/kg ip, at day 11): 100% | mortality at 216 h ([3]; mouse, 200 mg/kg ip): 100% | mortality at 216 h ([3]; mouse, 225 mg/kg ip): 100% | mortality at 192 h ([3]; mouse, 250 mg/kg ip): 100% | mortality at 120 h ([3]; mouse, 500 mg/kg ip, at day 5): 100% | mortality at 48 h ([3]; mouse, 750 mg/kg ip, at day 2): 100% | mortality at 24 h ([3]; mouse, 1000 mg/kg ip): 100% | % ILS ([4]; 0.5 mg/mouse ip, single dose (first entry)): 14.3% | % ILS ([4]; 0.5 mg/mouse ip, single dose (second entry)): 6.7% | % ILS ([4]; 0.5 mg/mouse sc, single dose (first entry)): 35.7% | % ILS ([4]; 0.5 mg/mouse sc, single dose (second entry)): 13.3% | % ILS ([4]; 1.0 mg/mouse ip, single dose (first entry)): 64.3% | % ILS ([4]; 1.0 mg/mouse ip, single dose (second entry)): 33.3% | % ILS ([4]; 1.0 mg/mouse sc, single dose (first entry)): 64.3% | % ILS ([4]; 1.0 mg/mouse sc, single dose (second entry)): 20.0% | % ILS ([4]; 2.0 mg/mouse ip, single dose, + = animals not yet all died): ≥ 264% | % ILS ([4]; 2.0 mg/mouse sc, single dose): 78.0% | % ILS ([4]; 25 mg/kg ip, single dose): 13.3% | % ILS ([4]; 25 mg/kg sc, single dose): 6.6% | % ILS ([4]; 50 mg/kg ip, single dose): 60.0% | % ILS ([4]; 50 mg/kg sc, single dose): 60.0% | % ILS ([4]; 75 mg/kg ip, single dose): 66.6% | % ILS ([4]; 75 mg/kg sc, single dose): 73.3% | % ILS ([5]; 0.5 mg/mouse ip, 1x/wk for 4 wks, begun day 2): 28.6% | % ILS ([5]; 0.5 mg/mouse ip, once, begun day 7): 6.7% | % ILS ([5]; 0.5 mg/mouse sc, 1x/wk for 4 wks, begun day 2, + = animals not yet all died): ≥ 114.3% | % ILS ([5]; 0.5 mg/mouse sc, once, begun day 7): 6.7% | % ILS ([5]; 1.0 mg/mouse ip, 1x/wk for 4 wks, begun day 2): 178.6% | % ILS ([5]; 1.0 mg/mouse ip, once, begun day 7): 66.6% | % ILS ([5]; 1.0 mg/mouse sc, 1x/wk for 4 wks, begun day 2, + = animals not yet all died): ≥ 207.1% | % ILS ([5]; 1.0 mg/mouse sc, once, begun day 7): 66.6% | % ILS ([5]; 2.0 mg/mouse ip, 1x/wk for 4 wks, begun day 2): 14.3% | % ILS ([5]; 2.0 mg/mouse sc, 1x/wk for 4 wks, begun day 2, + = animals not yet all died): ≥ 264% | % ILS ([5]; 25 mg/kg ip, 1x/wk for 4 wks, begun day 2, + = animals not yet all died): ≥ 100% | % ILS ([5]; 25 mg/kg ip, 2x/wk for 4 wks, begun day 2, + = animals not yet all died): ≥ 100% | % ILS ([5]; 25 mg/kg sc, 1x/wk for 4 wks, begun day 2, + = animals not yet all died): ≥ 100% | % ILS ([5]; 25 mg/kg sc, 2x/wk for 4 wks, begun day 2, + = animals not yet all died): ≥ 100% | % ILS ([5]; 50 mg/kg ip, 1x/wk for 4 wks, begun day 2, + = animals not yet all died): ≥ 100% | % ILS ([5]; 50 mg/kg ip, 2x/wk for 4 wks, begun day 2, + = animals not yet all died): ≥ 100% | % ILS ([5]; 50 mg/kg sc, 1x/wk for 4 wks, begun day 2, + = animals not yet all died): ≥ 100% | % ILS ([5]; 50 mg/kg sc, 2x/wk for 4 wks, begun day 2, + = animals not yet all died): ≥ 100% | % ILS ([5]; 75 mg/kg ip, 1x/wk for 4 wks, begun day 2, + = animals not yet all died): ≥ 100% | % ILS ([5]; 75 mg/kg ip, 2x/wk for 4 wks, begun day 2): 66.6% | % ILS ([5]; 75 mg/kg sc, 1x/wk for 4 wks, begun day 2, + = animals not yet all died): ≥ 100% | % ILS ([5]; 75 mg/kg sc, 2x/wk for 4 wks, begun day 2): 0% | % ILS ([6]; 0.5 mg/mouse): 41.5% | % ILS ([6]; 1.0 mg/mouse): 91.7% | % ILS ([6]; 2.0 mg/mouse, + = animals not yet all died): ≥ 483% | inflammation [7]: Inflammation gradually subsides | tumor size [7]: tumor size frequently decreases | clinical improvement ([7]; within several days): marked clinical improvement within several days | % ILS (increase in median lifespan) ([8]; 25 mg/kg ip): 37.5% | % ILS (increase in median lifespan) ([8]; 50 mg/kg ip): 100% | % ILS (increase in median lifespan) ([8]; 75 mg/kg ip, + = animals not yet all died): ≥ 275% | % ILS (increase in median lifespan) ([8]; 100 mg/kg ip, + = animals not yet all died): ≥ 275%

From patent US4423076A, “1-Branched-alkyl-3-(2-haloethyl)-3-nitrosoureas as novel antitumor agents” (National Foundation for Cancer Research, Inc., priority 1979, dated 1983)
